Like-named read-outs stand apart in the source and are kept apart here.
Legend:
[1] = test system: morningglory; assay: Test A pre-/postemergence herbicide test; type: in vivo, Ipomoea spp.; details: for pest or weed control at 500 g/ha / pest or weed control at 2000 g/ha: Ipomoea, 240 h
Summary of the method: (§1)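 Seeds sown in sandy loam received a preemergence directed soil spray of compound in non-phytotoxic solvent with surfactant; postemergence plants (2–10 cm, one- to two-leaf stage) were sprayed to runoff at the same time. After ~10 days in greenhouse, injury was rated visually versus untreated controls (0 = no effect, 100 = complete control).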

[2] = test system: Surinam grass; assay: Test C pre-/postemergence herbicide test; type: in vivo, Urochloa decumbens
Summary of the method: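 Seeds were planted and sprayed preemergence with test chemicals in a non-phytotoxic solvent mixture containing surfactant; postemergence treatments went onto plants 2 to 18 cm tall (1- to 4-leaf stage). After 12 to 14 days in a greenhouse, injury was rated visually against untreated controls on a 0–100 scale.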

[3] = test system: barnyardgrass; assay: Test A pre-/postemergence herbicide test; type: in vivo, Echinochloa crus-galli; details: for pest or weed control at 500 g/ha / pest or weed control at 2000 g/ha: Echinochloa crus-galli, 240 h
Summary of the method: as §1

[4] = test system: large crabgrass; assay: Test A pre-/postemergence herbicide test; type: in vivo, Digitaria sanguinalis; details: for pest or weed control at 500 g/ha / pest or weed control at 2000 g/ha: Digitaria sanguinalis, 240 h
Summary of the method: as §1

[5] = test system: common (oilseed) sunflower; assay: Test C pre-/postemergence herbicide test; type: in vivo, Helianthus annuus; details: preemergence
Text: Seeds of plant species selected from bermudagrass (Cynodon dactylon (L.) Pers.), Surinam grass (Urochloa decumbens (Staph) R. D. Webster, previously named Brachiaria decumbens Stapf), cocklebur (Xanthium strumarium L.), corn (Zea mays L.), large crabgrass (Digitaria sanguinalis (L.) Scop.), woolly cupgrass (Eriochloa villosa (Thunb.) Kunth), giant foxtail (Setaria faberi Herrm.), goosegrass (Eleusine indica (L.) Gaertn.), johnsongrass (Sorghum halepense (L.) Pers.), kochia (Kochia scoparia (L.) Schrad.), lambsquarters (Chenopodium album L.), morningglory (Ipomoea coccinea L.), eastern black nightshade (Solanum ptycanthum Dunal), yellow nutsedge (Cyperus esculentus L.), pigweed (Amaranthus retroflexus L.), common ragweed (Ambrosia elatior L.), soybean (Glycine max (L.) Merr.), common (oilseed) sunflower (Helianthus annuus L.) and velvetleaf (Abutilon theophrasti Medik.) were planted and treated preemergence with test chemicals formulated in a non-phytotoxic solvent mixture which included a surfactant.
At the same time, plants selected from these crop and weed species and also winter barley (Hordeum vulgare L.), blackgrass (Alopecurus myosuroides Huds.), canarygrass (Phalaris minor Retz.), chickweed (Stellaria media (L.) Vill.), downy bromegrass (Bromus tectorum L.), green foxtail (Setaria viridis (L.) Beauv.), Italian ryegrass (Lolium multiflorum Lam.), wheat (Triticum aestivum L.), wild oat (Avenafatua L.) and windgrass (Apera spica-venti (L.) Beauv.) were treated with postemergence applications of some of the test chemicals formulated in the same manner. Plants ranged in height from 2 to 18 cm (1- to 4-leaf stage) for postemergence treatments. Plant species in the flooded paddy test consisted of rice (Oryza sativa), smallflower umbrella sedge (Cyperus difformis L.), ducksalad (Heteranthera limosa (Sw.) Willd.) and barnyardgrass (Echinochloa crus-galli (L.) Beauv.) grown to the 2-leaf stage for testing. Treated plants and controls were maintained in a greenhouse for 12 to 14 days, after which time all species were compared to controls and visually evaluated. Plant response ratings, summarized in Table C, are based on a scale of 0 to 100 where 0 is no effect and 100 is complete control. A dash (-) response means no test result.

[6] = test system: rice; assay: Test B pre-/postemergence herbicide test; type: in vivo, Oryza sativa; details: preemergence
Summary of the method: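 Herbicidal effect was judged by eye on a 0–100 scale after plants stood 13 to 15 days in the greenhouse following pre- or postemergence treatment with surfactant-containing formulations.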

[7] = test system: barnyardgrass; assay: Test C flooded paddy test; type: in vivo, Echinochloa crus-galli
Summary of the method: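 Postemergence sprays were applied to plants 2 to 18 cm tall (1- to 4-leaf stage); in the flooded paddy test, barnyardgrass was grown to the 2-leaf stage. After 12 to 14 days in a greenhouse, injury was visually rated against untreated controls on a 0–100 scale (100 = complete control).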

[8] = test system: rice; assay: Test C flooded paddy test; type: in vivo, Oryza sativa
Summary of the method: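 Postemergence sprays applied to plants 2 to 18 cm tall (1- to 4-leaf stage); paddy species grown to 2-leaf stage under flooding. After 12 to 14 days in greenhouse, visual rating versus untreated controls on 0–100 scale (0 no effect, 100 complete control).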

[9] = Postemergence, 500 g ai/ha, 0 to 100 scale, 0 no effect, 100 complete control
[10] = Postemergence, 2000 g ai/ha, 0 to 100 scale, 0 no effect, 100 complete control
[11] = Preemergence, 500 g ai/ha, visual rating, 0 to 100 scale (0 no effect, 100 complete control)
[12] = Preemergence, 2000 g ai/ha, 0 to 100 scale, 0 no effect, 100 complete control
[13] = 125 g ai/ha, scale 0 (no effect) to 100 (complete control), visual, 12 to 14 days, preemergence
[14] = postemergence, 125 g ai/ha, scale 0 to 100
[15] = postemergence, 62 g ai/ha, scale 0 to 100
[16] = 125 g ai/ha, scale 0 (no effect) to 100 (complete control), visual, 12 to 14 days
[17] = Postemergence, 250 g ai/ha, scale 0 to 100, 0 no effect, 100 complete control
[18] = 125 g ai/ha, scale 0 to 100 (0 no effect, 100 complete control)
[19] = 250 g ai/ha, scale of 0 to 100, 0 is no effect, 100 is complete control
[20] = 500 g ai/ha, visual rating after 12 to 14 days, scale 0 to 100 (0 no effect, 100 complete control)
[21] = 62 g ai/ha, preemergence, scale 0 to 100
[22] = 500 g ai/ha, scale 0 to 100 (0 no effect, 100 complete control), visual, 12 to 14 days, preemergence
[23] = 500 g ai/ha, scale 0 to 100 (0 no effect, 100 complete control), visual, 12 to 14 days

Compound	Plant response rating, Morningglory [1, 9]	Plant response rating, Morningglory [1, 10]	Morningglory plant response rating [1, 11]	Morningglory plant response rating [1, 12]	Plant response rating (0 = no effect, 100 = complete control), Surinam Grass ([2]; 62 g ai/ha, preemergence)	Plant response rating, Surinam Grass [2, 13]	Plant response rating, Surinam Grass [2, 14]	Plant response rating, Surinam Grass [2, 15]	Plant response rating, Barnyardgrass [3, 9]	Plant response rating, Barnyardgrass [3, 10]	Barnyardgrass plant response rating [3, 11]	Barnyardgrass plant response rating [3, 12]	Plant response rating, Crabgrass, Large [4, 9]	Plant response rating, Crabgrass, Large [4, 10]	Crabgrass, Large plant response rating [4, 11]	Crabgrass, Large plant response rating [4, 12]	Plant response rating (0 = no effect, 100 = complete control), Sunflower ([5]; 62 g ai/ha)	Plant response rating, Sunflower [5, 16]	Plant response rating, Surinam Grass [2, 17]	Plant response rating, Surinam Grass [2, 21]	further results
CCNC(=O)c1cccc(NC(=O)c2cc(C(C)(C)C)nn2CCF)c1 [Compound 35]	10	10	25	85	10	20	60	40	70	85	70	90	55	60	95	100	10	10	–	–	Plant response rating, Surinam Grass ([2]; 31 g ai/ha, preemergence, scale 0 to 100): 0; Plant response rating, Sunflower ([5]; 31 g ai/ha, scale 0 to 100): 10
CCn1nc(C(C)(C)C)cc1C(=O)Nc1cccc(C(=O)NC2CC2)c1 [Compound 44]	15	45	10	30	10	10	–	40	90	100	75	90	55	80	45	90	0	0	40	–	Plant response rating, Surinam Grass ([2]; 250 g ai/ha, scale 0 to 100 (0 no effect, 100 complete control), visual, 12 to 14 days, preemergence): 10; Plant response rating, Sunflower ([5]; 250 g ai/ha, scale 0 to 100 (0 no effect, 100 complete control), visual, 12 to 14 days): 0
CCn1nc(C(C)(C)C)cc1C(=O)Nc1cccc(C(=O)OCCF)c1 [Compound 82, 2-fluoroethyl 3-[[[3-(1,1-dimethylethyl)-1-ethyl-1H-pyrazol-5-yl]-carbonyl]amino]benzoate]	–	–	–	–	–	–	–	–	–	–	–	–	–	–	–	–	–	–	–	–	pest or weed control at 500 g/ha ([1]; post-emergence, Postemergence, 500 g ai/ha, 0 to 100 scale, 0 no effect, 100 complete control, read-out: Plant response rating, Morningglory): 20%; pest or weed control at 2000 g/ha ([1]; post-emergence, Postemergence, 2000 g ai/ha, 0 to 100 scale, 0 no effect, 100 complete control, read-out: Plant response rating, Morningglory): 10%; pest or weed control at 500 g/ha ([1]; pre-emergence, Preemergence, 500 g ai/ha, visual rating, 0 to 100 scale (0 no effect, 100 complete control), read-out: Morningglory plant response rating): 0%; pest or weed control at 2000 g/ha ([1]; pre-emergence, Preemergence, 2000 g ai/ha, 0 to 100 scale, 0 no effect, 100 complete control, read-out: Morningglory plant response rating): 15%; Surinam Grass plant response rating ([2]; Postemergence, 500 g ai/ha, scale 0 to 100): 40; pest or weed control at 250 g/ha ([2]; Urochloa decumbens, post-emergence, 312 h, Postemergence, 250 g ai/ha, scale 0 to 100, 0 no effect, 100 complete control, read-out: Plant response rating, Surinam Grass): 20%; pest or weed control at 125 g/ha ([2]; Urochloa decumbens, post-emergence, 312 h, postemergence, 125 g ai/ha, scale 0 to 100, read-out: Plant response rating, Surinam Grass): 10%; pest or weed control at 62 g/ha ([2]; Urochloa decumbens, post-emergence, 312 h, postemergence, 62 g ai/ha, scale 0 to 100, read-out: Plant response rating, Surinam Grass): 10%; pest or weed control at 500 g/ha ([3]; post-emergence, Postemergence, 500 g ai/ha, 0 to 100 scale, 0 no effect, 100 complete control, read-out: Plant response rating, Barnyardgrass): 20%; pest or weed control at 2000 g/ha ([3]; post-emergence, Postemergence, 2000 g ai/ha, 0 to 100 scale, 0 no effect, 100 complete control, read-out: Plant response rating, Barnyardgrass): 20%; pest or weed control at 500 g/ha ([3]; pre-emergence, Preemergence, 500 g ai/ha, visual rating, 0 to 100 scale (0 no effect, 100 complete control), read-out: Barnyardgrass plant response rating): 0%; pest or weed control at 2000 g/ha ([3]; pre-emergence, Preemergence, 2000 g ai/ha, 0 to 100 scale, 0 no effect, 100 complete control, read-out: Barnyardgrass plant response rating): 0%; plant injury at 125 g/ha ([6]; Oryza sativa, pre-emergence, 336 h, 125 g ai/ha, 0 to 100 scale, 0 is no effect, 100 is complete control, read-out: Plant response rating, Rice): 0%; pest or weed control at 500 g/ha ([4]; post-emergence, Postemergence, 500 g ai/ha, 0 to 100 scale, 0 no effect, 100 complete control, read-out: Plant response rating, Crabgrass, Large): 20%; pest or weed control at 2000 g/ha ([4]; post-emergence, Postemergence, 2000 g ai/ha, 0 to 100 scale, 0 no effect, 100 complete control, read-out: Plant response rating, Crabgrass, Large): 30%; pest or weed control at 500 g/ha ([4]; pre-emergence, Preemergence, 500 g ai/ha, visual rating, 0 to 100 scale (0 no effect, 100 complete control), read-out: Crabgrass, Large plant response rating): 0%; pest or weed control at 2000 g/ha ([4]; pre-emergence, Preemergence, 2000 g ai/ha, 0 to 100 scale, 0 no effect, 100 complete control, read-out: Crabgrass, Large plant response rating): 0%
CCOC(=O)c1cccc(NC(=O)c2cc(C3(C)CC3)nn2CC)c1 [Compound 295]	–	–	–	–	–	–	5	5	–	–	–	–	–	–	–	–	–	–	15	–	Barnyardgrass plant response rating ([7]; 62 g ai/ha, scale 0 to 100 (0 no effect, 100 complete control)): 0; Barnyardgrass plant response rating [7, 18]: 15; Barnyardgrass plant response rating [7, 19]: 25; Plant response rating, Barnyardgrass [7, 20]: 40; Rice plant response rating (0 to 100 scale) ([6]; 125 g ai/ha, 0 = no effect, 100 = complete control): 10; Plant response rating, Rice ([6]; 500 g ai/ha, visual rating, 0 = no effect, 100 = complete control): 20; Rice plant response rating ([8]; 62 g ai/ha, scale 0 to 100): 5; Rice plant response rating [8, 18]: 10; Rice plant response rating [8, 19]: 40; Plant response rating, Rice [8, 20]: 40
Cc1nn(C(C)(C)C)nc1C(=O)Nc1cccc(C(=S)N(C)C)c1 [Compound 419]	–	–	–	–	–	–	–	–	–	–	–	–	–	–	–	–	–	–	–	0	Plant response rating (0 = no effect, 100 = complete control), Surinam Grass ([2]; 125 g ai/ha, preemergence): 45; Plant response rating, Surinam Grass [2, 22]: 100; Plant response rating, Sunflower ([5]; 62 g ai/ha, scale 0 to 100): 0; Plant response rating (0 = no effect, 100 = complete control), Sunflower ([5]; 125 g ai/ha): 0; Plant response rating, Sunflower [5, 23]: 95
CCNC(=S)c1cccc(NC(=O)c2nn(C(C)(C)C)nc2C)c1 [Compound 420]	–	–	–	–	–	–	–	–	–	–	–	–	–	–	–	–	–	–	–	10	Plant response rating (0 = no effect, 100 = complete control), Surinam Grass ([2]; 125 g ai/ha, preemergence): 20; Plant response rating, Surinam Grass [2, 22]: 95; Plant response rating, Sunflower ([5]; 62 g ai/ha, scale 0 to 100): 0; Plant response rating (0 = no effect, 100 = complete control), Sunflower ([5]; 125 g ai/ha): 0; Plant response rating, Sunflower [5, 23]: 65
